Experimental data reported in publication PMC11091879, “Inhibitors of the Thioesterase Activity of Mycobacterium tuberculosis Pks13 Discovered Using DNA-Encoded Chemical Library Screening” (ACS Infectious Diseases, 2024).
In brackets after ≈: the same amount, converted by molar mass. Like-named read-outs stand apart in the source and are kept apart here.

Columns and labels:
Pks13-TE = Pks13-TE (Mycobacterium tuberculosis, UniProt I6X8D2); assay: biochemical; type: binding
WT H37Rv = assay: microbe, parasite or virus in culture; type: cell-based, Mycobacterium tuberculosis; settings: Mycobacterium tuberculosis, H37RV
[1] = system: pks13-TetON +ATc (Pks13-hypermorph); type: cell-based, Mycobacterium tuberculosis
[2] = system: pks13-TetON -ATc (hypomorph); type: cell-based, Mycobacterium tuberculosis
Mtb H37Rv = system: Mtb H37Rv; set-up: species or system Mycobacterium tuberculosis; settings: in vivo, po
[3] = in vivo, po
in vivo = settings: female, CD-1, mouse
in vitro [4] = settings: mouse, plasma
in vitro [5] = settings: human, plasma
in vitro [6] = settings: mouse, microsomes
[7] = Mouse pharmacokinetics studies; settings: female, CD-1, mouse, plasma
[8] = Metabolic stability in mouse liver microsomes (MLMs)

Chain of Pks13-TE (I6X8D2 1451-1733 limits assumed): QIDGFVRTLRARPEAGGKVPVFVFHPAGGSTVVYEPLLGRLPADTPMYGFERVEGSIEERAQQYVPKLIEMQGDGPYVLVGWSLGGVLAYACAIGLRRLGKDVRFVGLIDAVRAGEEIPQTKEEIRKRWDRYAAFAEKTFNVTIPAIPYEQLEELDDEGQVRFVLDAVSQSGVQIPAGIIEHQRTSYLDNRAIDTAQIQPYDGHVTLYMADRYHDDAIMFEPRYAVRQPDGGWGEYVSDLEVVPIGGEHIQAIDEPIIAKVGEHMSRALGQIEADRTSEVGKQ

SMILES: COc1ccc(OC)c(-c2ccc(-c3cn(CCc4ccc(C(=O)N(C)C)cc4)nn3)cn2)c1 [X20404]
- IC50 (Pks13-TE; IC50 (enzyme inhibition)): 0.4 µM
- IC50 (Pks13-TE; IC50 (uM)): 0.43 µM
- MIC (WT H37Rv; read-out: MIC (Mtb inhibition)): 0.25 µM (≈ 0.114 µg/mL)
- MIC (WT H37Rv; read-out: MIC (whole cell activity)): 0.25 µM (≈ 0.114 µg/mL)
- MIC (WT H37Rv; read-out: WT H37Rv MIC (uM)): 0.25 µM (≈ 0.114 µg/mL)
- Hypermorph MIC fold shift (+ATc/WT) [1]: 2.3 fold
- Hypomorph MIC fold shift (WT/-ATc) [2]: 2.9 fold
- reduction of the lung CFU compared to untreated control (Mtb H37Rv; 100 mg/kg): approximately 0.4 log10
- reduction of the lung CFU compared to untreated control (Mtb H37Rv; 200 mg/kg): 0.8 log10
- fold higher maximum concentration in blood compared to three other compounds ([3]; female, CD-1, mouse, 25 mg/kg): ~10 fold
- plasma concentrations relative to MIC ([3]; mouse, 200 mg/kg): above the MIC
- Vd (in vivo): 0.3 L/kg
- bioavailability (in vivo): 8%
- clearance (in vivo): 6.2 mL/min/kg
- fraction unbound at 4 h, 10000 ng/mL (in vitro [4]; mouse PPB (%)): 0.023
- fraction unbound at 4 h, 10000 ng/mL (in vitro [4]; plasma protein binding): 0.02
- fraction unbound at 4 h, 10000 ng/mL (in vitro [5]): 0.044
- microsomal CLint at 5 μM (in vitro [6]): 26.2 µL/min/mg
- half-life ([7]; intravenous, 5 mg/kg): 36 min
- AUC(0-t) ([7]; iv, 5 mg/kg): 13500 ng·h/mL
- AUC(0-t) ([7]; po, 25 mg/kg): 3700 ng·h/mL
- AUC(0-t) ([7]; po, 50 mg/kg): 14200 ng·h/mL
- AUC(0-t) ([7]; po, 100 mg/kg): 33300 ng·h/mL
- AUC(0-t) ([7]; po, 200 mg/kg): 98100 ng·h/mL
- half-life at 5 μM [8]: 26.8 min
